# Data as given in patent US6723897B2, “Methods for controlling gibberellin levels” (Monsanto Technology, LLC, priority 1998, dated 2004).
# Legend:
# Format in all cases: in vivo, Glycine max
# [1] = system: non-transgenic soybean line A4922; assay: Field trial of seed coatings under soil compaction / different soils, wild-type soybean; conditions: for Count (emergence) / Height (total plant height): A4922
# Method: The second trial (data reported in Tables 22-24) tested the precursors under conditions of soil compaction.
# As noted above, the second trial tested the noted precursors under conditions of soil compaction. These experiments are performed in the same manner as in the first trial, except that the soil is compacted with an all-terrain vehicle.
# “Height” equals total plant height in cm.
# [2] = system: transgenic line 719 soybean; assay: Field trial of seed coatings under soil compaction / different soils, GA-deficient soybean; conditions: for Count (emergence) / Dwarfs (number of dwarfs not rescued) / Dwarfs (number not rescued): Line 719; for rank of potential for rescuing GA-deficient dwarf soybeans without decreasing emergence: based on the last two field trials; for best to least selectivity order: emergence under soil compaction, margin of selectivity, rescue without overelongation
# [3] = system: AX5/antisense CPScc soybean line 234 (R3); assay: Hilum seed treatment of epicotyl-intensive GA-deficient soybean, height (FIG. 43); conditions: 10 DAP; for restoration of height of line 234 soybeans: hypocotyl and epicotyl elongation, hypocotyl to epicotyl ratio not maintained; for response of line 234 height: seed treatment rates between 0.1 and 1 μg/seed
# Method: The purpose of this study is to evaluate the ability of four GA compounds, i.e., GA9, GA5, GA3-3-acetate, and GA12, to restore normal growth in AX5/antisense CPScc soybean lines when applied as a seed treatment.
# Line 46 plants are R2; Line 234 plants are R3.
# The GA compounds are dissolved in ethanol and applied to the hilum of dry seeds as not more than 10 μl droplets with a syringe. If multiple applications are made to seeds, the previous application is allowed to dry before a subsequent application is made.
# Seeds are sown 1 inch deep in commercial potting soil (Metromix 200) in 4-inch plastic pots and placed in a greenhouse set for 12 hours artificial light and a temperature regime of 85° F. (29° C.) day and 75° F. night (24° C.). Pots are watered as necessary by overhead hand watering. Hypocotyl and epicotyl measurements are made for each plant at various stages of plant growth.
# The lower dashed horizontal line represents the total height of untreated AX5 line 234 soybeans. The upper dashed horizontal line represents the total height of untreated wild-type A4922 soybeans. Measurements are made 10 days after planting.
# [4] = system: wild-type soybean line A3237; assay: Experiment II second greenhouse test, seed imbibition, wild-type soybean; conditions: seeds imbibed 6 hours
# Method: (The compounds are tested in Experiment I at only one concentration, i.e., 0.25 mg/ml). Test tubes contained […] of ethanol solution per tube. Final volumes are made up to 30 ml with deionized water. After shaking, the treatment solutions (15 ml each) are transferred to each of two 50 ml test tubes. […] Twenty seeds are used in each treatment. Dry seed, ethanol/water-imbibed seed (1% ethanol in water, v/v), and water-imbibed seeds are included as controls. Seeds are imbibed for 6 hours in the test solutions, then planted in bread pans containing Metromix 350 (The Scotts Company, Marysville, Ohio), and covered with 0.5″ Metro-mix. Covered pans are transferred to the greenhouse and subirrigated. Illumination is at a light intensity of 300-400 μmolm^−2s^−1 photosynthetic photon flux; 16 hours light/8 hours dark. Subsequent waterings are also through sub-irrigation until the test is terminated three weeks later. Observations included the number of dwarf, intermediate, and tall plants; plant height; uniformity of rescue; and any visual effects. Digital photographs are also taken.
# [5] = Heavy soil - Loose, target rate 0.5 μg/seed, Table 23
# [6] = Heavy soil - Loose, target rate 2.0 μg/seed, Table 23
# [7] = Heavy soil - Loose, target rate 4.0 μg/seed, Table 23
# [8] = Heavy soil - compacted, target rate 0.5 μg/seed, Table 23
# [9] = Heavy soil - compacted, target rate 2.0 μg/seed, Table 23
# [10] = Heavy soil - compacted, target rate 4.0 μg/seed, Table 23
# [11] = Heavy soil - loose, target rate 0.5 μg/seed, Table 22
# [12] = Heavy soil - loose, target rate 2.0 μg/seed, Table 22
# [13] = Light soil - Compacted, target rate 0.5 μg/seed, Table 22
# [14] = Light soil - Compacted, target rate 2.0 μg/seed, Table 22
# [15] = Light soil - Loose, target rate 0.5 μg/seed, Table 24
# [16] = Light soil - Loose, target rate 2.0 μg/seed, Table 24
# [17] = Light soil - Loose, target rate 4.0 μg/seed, Table 24
# [18] = Light soil - compacted, target rate 0.5 μg/seed, Table 24
# [19] = Light soil - compacted, target rate 2.0 μg/seed, Table 24
# [20] = Light soil - compacted, target rate 4.0 μg/seed, Table 24
smiles,measurement,setting,value
C=C1C[C@]23C[C@@]1(O)CC[C@H]2[C@@]12C=C[C@H](OC(C)=O)[C@@](C)(C(=O)O1)[C@H]2[C@@H]3C(=O)O [GA3-3-acetate],Count (emergence),[1]; [5],29.0 a-d
same,Height (total plant height),[1]; [5],5.3 g·cm·days
same,Count (emergence),[1]; [6],15.3 f
same,Height (total plant height),[1]; [6],6.0 c-f cm
same,Count (emergence),[1]; [7],7
same,Height (total plant height),[1]; [7],8.0 ab cm
same,Count (emergence),[1]; [8],4.0 de
same,Height (total plant height),[1]; [8],5.3 b-e cm
same,Count (emergence),[1]; [9],6.0 cde
same,Height (total plant height),[1]; [9],5.7 bcd cm
same,Count (emergence),[1]; [10],0 e
same,Count (emergence),[1]; [11],29 a-d
same,Height (total plant height),[1]; [11],5.3 g·cm·days
same,Count (emergence),[1]; [12],15 f
same,Height (total plant height),[1]; [12],6.0 c-f cm
same,Count (emergence),[1]; [13],28 bcd
same,Height (total plant height),[1]; [13],6.3 cm·days
same,Count (emergence),[1]; [14],18 def
same,Height (total plant height),[1]; [14],8.7 c cm
same,Count (emergence),[1]; [15],44.3 abc
same,Height (total plant height),[1]; [15],6.3 f cm
same,Count (emergence),[1]; [16],42.0 abc
same,Height (total plant height),[1]; [16],9.7 bc cm
same,Count (emergence),[1]; [17],42.3 abc
same,Height (total plant height),[1]; [17],10.3 b cm
same,Count (emergence),[1]; [18],27.7 cd
same,Height (total plant height),[1]; [18],6.3 cm·days
same,Count (emergence),[1]; [19],18.0 def
same,Height (total plant height),[1]; [19],8.7 c cm
same,Count (emergence),[1]; [20],22.7 dc
same,Height (total plant height),[1]; [20],11.0 ab cm
same,plant height dose/response in wild-type line A4922 (FIG. 40),[1]; in vivo,dose/response curves similar to that of GA3
same,Count (emergence),[2]; [5],31.3 bcd
same,Dwarfs (number of dwarfs not rescued),[2]; [5],0.3 de
same,Count (emergence),[2]; [6],27.3 cd
same,Dwarfs (number of dwarfs not rescued),[2]; [6],0 e
same,Count (emergence),[2]; [7],18.3 ef
same,Dwarfs (number of dwarfs not rescued),[2]; [7],0 e
same,Count (emergence),[2]; [8],10.3 c-f
same,Dwarfs (number of dwarfs not rescued),[2]; [8],0.3 cd
same,Count (emergence),[2]; [9],7.3 efg
same,Dwarfs (number of dwarfs not rescued),[2]; [9],0 days
same,Count (emergence),[2]; [10],2.0 g
same,Dwarfs (number of dwarfs not rescued),[2]; [10],0 days
same,Count (emergence),[2]; [11],31 bcd
same,Dwarfs (number of dwarfs not rescued),[2]; [11],3.3 c
same,Count (emergence),[2]; [12],27 cd
same,Dwarfs (number of dwarfs not rescued),[2]; [12],0.3 de
same,Count (emergence),[2]; [13],25 def
same,Dwarfs (number of dwarfs not rescued),[2]; [13],0 days
same,Count (emergence),[2]; [14],22 efg
same,Dwarfs (number of dwarfs not rescued),[2]; [14],0 days
same,Count (emergence),[2]; [15],45.3 ab
same,Dwarfs (number not rescued),[2]; [15],0.3 e
same,Count (emergence),[2]; [16],43.3 ab
same,Dwarfs (number not rescued),[2]; [16],0 c
same,Count (emergence),[2]; [17],42.7 ab
same,Dwarfs (number not rescued),[2]; [17],0 c
same,Count (emergence),[2]; [18],25.3 def
same,Dwarfs (number not rescued),[2]; [18],0
same,Count (emergence),[2]; [19],22.0 efg
same,Dwarfs (number not rescued),[2]; [19],0
same,Count (emergence),[2]; [20],33.7 a-e
same,Dwarfs (number not rescued),[2]; [20],0
same,rank of potential for rescuing GA-deficient dwarf soybeans without decreasing emergence,[2],GA9>GA5>GA3-3-acetate>GA3>GA12
same,best to least selectivity order,[2]; Table 22,GA9>GA5>GA3-3-acetate>GA3
same,restoration of height of line 234 soybeans,[3],restore normal height to line 234 soybeans
same,response of line 234 height,[3],generally similar response
same,Significant Visual Observations on Line A3237,[4]; 0.0025 mg/ml,Normal height
C=C1C[C@]23C[C@@]1(O)CC[C@H]2[C@@]12CC=C[C@@](C)(C(=O)O1)[C@H]2[C@@H]3C(=O)O [GA5],Count (emergence),[1]; [5],32.0 abc
same,Height (total plant height),[1]; [5],5.3 g·cm·days
same,Count (emergence),[1]; [6],24.7 de
same,Height (total plant height),[1]; [6],6.7 bcd cm
same,Count (emergence),[1]; [7],26.7 b-e
same,Height (total plant height),[1]; [7],9.0 a cm
same,Count (emergence),[1]; [8],13.7 abc
same,Height (total plant height),[1]; [8],4.7 cde cm
same,Count (emergence),[1]; [9],9.0 bcd
same,Height (total plant height),[1]; [9],6.7 ab cm
same,Count (emergence),[1]; [10],6.7 cde
same,Height (total plant height),[1]; [10],6.7 ab cm
same,Count (emergence),[1]; [11],32 abc
same,Height (total plant height),[1]; [11],5.3 g·cm·days
same,Count (emergence),[1]; [12],25 cde
same,Height (total plant height),[1]; [12],6.7 bcd cm
same,Count (emergence),[1]; [13],37 abc
same,Height (total plant height),[1]; [13],6.7 cm·days
same,Count (emergence),[1]; [14],22 de
same,Height (total plant height),[1]; [14],9.0 c cm
same,Count (emergence),[1]; [15],44.7 ab
same,Height (total plant height),[1]; [15],6.0 fg·cm
same,Count (emergence),[1]; [16],41.0 abc
same,Height (total plant height),[1]; [16],10.0 bc cm
same,Count (emergence),[1]; [17],43.3 abc
same,Height (total plant height),[1]; [17],12.7 a cm
same,Count (emergence),[1]; [18],36.7 abc
same,Height (total plant height),[1]; [18],6.7 cm·days
same,Count (emergence),[1]; [19],21.7 de
same,Height (total plant height),[1]; [19],9.0 c cm
same,Count (emergence),[1]; [20],18.7 def
same,Height (total plant height),[1]; [20],11.7 a cm
same,plant height dose/response in wild-type line A4922 (FIG. 40),"[1]; ten days after planting, compacted soil",dose/response curves similar to that of GA3
same,Count (emergence),[2]; [5],31.7 bcd
same,Dwarfs (number of dwarfs not rescued),[2]; [5],2.0 cde
same,Count (emergence),[2]; [6],32.3 bcd
same,Dwarfs (number of dwarfs not rescued),[2]; [6],0.7 cde
same,Count (emergence),[2]; [7],30.3 bcd
same,Dwarfs (number of dwarfs not rescued),[2]; [7],0 e
same,Count (emergence),[2]; [8],18.3 ab
same,Dwarfs (number of dwarfs not rescued),[2]; [8],0 days
same,Count (emergence),[2]; [9],9.0 g·days
same,Dwarfs (number of dwarfs not rescued),[2]; [9],0 days
same,Count (emergence),[2]; [10],7.0 efg
same,Dwarfs (number of dwarfs not rescued),[2]; [10],0 days
same,Count (emergence),[2]; [11],32 bcd
same,Dwarfs (number of dwarfs not rescued),[2]; [11],2.0 cde
same,Count (emergence),[2]; [12],32 bcd
same,Dwarfs (number of dwarfs not rescued),[2]; [12],0.7 cde
same,Count (emergence),[2]; [13],39 abc
same,Dwarfs (number of dwarfs not rescued),[2]; [13],0 days
same,Count (emergence),[2]; [14],30 a-f
same,Dwarfs (number of dwarfs not rescued),[2]; [14],0 days
same,Count (emergence),[2]; [15],46.3 a
same,Dwarfs (number not rescued),[2]; [15],1.0 e
same,Count (emergence),[2]; [16],43.3 ab
same,Dwarfs (number not rescued),[2]; [16],0 e
same,Count (emergence),[2]; [17],45.0 ab
same,Dwarfs (number not rescued),[2]; [17],0 e
same,Count (emergence),[2]; [18],39.0 abc
same,Dwarfs (number not rescued),[2]; [18],0
same,Count (emergence),[2]; [19],30.3 a-f
same,Dwarfs (number not rescued),[2]; [19],0
same,Count (emergence),[2]; [20],32.7 a-e
same,Dwarfs (number not rescued),[2]; [20],0
same,rank of potential for rescuing GA-deficient dwarf soybeans without decreasing emergence,[2],GA9>GA5>GA3-3-acetate>GA3>GA12
same,best to least selectivity order,[2]; Table 22,GA9>GA5>GA3-3-acetate>GA3
same,restoration of height of line 234 soybeans,[3],restore normal height to line 234 soybeans
same,response of line 234 height,[3],generally similar response
same,Significant Visual Observations on Line A3237,[4]; 0.025 mg/ml,Normal height
